The values below come from PubChem BioAssay (NCI).

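96-well plates; 48 h exposure; 5 concentrations. Endpoints by linear interpolation between flanking doses. Not reached: highest tested concentration assigned. The concentration for full growth arrest is given as TGI.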

Among the test systems are RPMI-8226 leukemia; COLO 205 colon; SK-MEL-28 melanoma; DU-145 prostate; NCI-H23 lung; OVCAR-4 ovarian; HOP-92 NSCLC; M14 melanoma; UACC-257 melanoma; MDA-MB-435; T-47D breast; PC-3 prostate; HCT-116 colon; ACHN renal; HOP-62 NSCLC; SR leukemia; TK-10 renal; LOX IMVI melanoma; SN12C renal; CAKI-1 renal.
Common to all, as to assay: growth of human tumour cells (NCI), 48 h

`CCCC(=O)NC(Nc1cc(C)ccn1)(C(=O)OCC)C(F)(F)F` (stereo not given): the TGI in the test on RPMI-8226 leukemia, in the test with COLO 205 colon, with SK-MEL-28 melanoma, in the test on DU-145 prostate, in the test on NCI-H23 lung and in the test with OVCAR-4 ovarian was > 100 µM each time. For the same compound, the TGI with HOP-92 NSCLC, in the test with M14 melanoma, in the test on UACC-257 melanoma, in the test on MDA-MB-435, in the test on T-47D breast and with PC-3 prostate was > 100 µM in each case. For the same compound, the TGI in the test with HCT-116 colon, with ACHN renal, in the test on HOP-62 NSCLC, in the test with SR leukemia, in the test with TK-10 renal and in the test with LOX IMVI melanoma was > 100 µM in each case. Also, the TGI with SN12C renal and with CAKI-1 renal was > 100 µM throughout.
With `Cc1ccc(S(=O)(=O)N2CCN(S(=O)(=O)c3ccc(C)cc3)CCN(S(=O)(=O)c3ccc(C)cc3)Cc3cc(C#N)c(C#N)cc3CN(S(=O)(=O)c3ccc(C)cc3)CC2)cc1`, the TGI in the test with RPMI-8226 leukemia, with COLO 205 colon, with SK-MEL-28 melanoma, with DU-145 prostate, in the test with NCI-H23 lung and in the test on OVCAR-4 ovarian was > 100 µM throughout. Further, the TGI in the test on HOP-92 NSCLC is 89.3 µM; in the test with M14 melanoma, 89.1 µM; in the test with UACC-257 melanoma it was > 100 µM; in the test with MDA-MB-435, > 100 µM; in the test on T-47D breast it was > 100 µM; with PC-3 prostate, > 100 µM. Moreover, the TGI in the test on HCT-116 colon, with ACHN renal, in the test on HOP-62 NSCLC, in the test on SR leukemia, with TK-10 renal and in the test on LOX IMVI melanoma was > 100 µM in each case. In addition, the TGI in the test on SN12C renal and in the test on CAKI-1 renal was > 100 µM each time.
`COC(=O)c1c(C)cccc1C1CN=NC12Cc1ccccc1C2=O` (stereo not given): the TGI in the test on RPMI-8226 leukemia, in the test on COLO 205 colon, in the test on SK-MEL-28 melanoma, with DU-145 prostate, with NCI-H23 lung and in the test on OVCAR-4 ovarian was > 100 µM in each case. Also, the TGI in the test with HOP-92 NSCLC was > 100 µM; in the test on M14 melanoma, > 87.9 µM; with UACC-257 melanoma it was > 91.3 µM; with MDA-MB-435 it was > 100 µM; with T-47D breast, > 100 µM; in the test on PC-3 prostate, > 100 µM. For the same compound, the TGI in the test with HCT-116 colon, in the test with ACHN renal, with HOP-62 NSCLC, in the test on SR leukemia, with TK-10 renal and with LOX IMVI melanoma was > 100 µM in each case. Moreover, the TGI with SN12C renal and with CAKI-1 renal was > 100 µM throughout.
On to `COc1cc2c(cc1C[C@H]1[C@@H]3C[C@H]4c5c(c6ccccc6n5C)C[C@@H]([C@@H]3CO[C@]1(C)OC(C)=O)N4C)c1c(n2C)C2C[C@H]3C(C(C)=O)=COC[C@H]3[C@H](C1)N2C`, for which the TGI in the test on RPMI-8226 leukemia is 3.56 µM; in the test with COLO 205 colon, 6.19 µM; in the test with SK-MEL-28 melanoma, > 25 µM; with DU-145 prostate, > 25 µM; with NCI-H23 lung, > 25 µM; with OVCAR-4 ovarian it was > 25 µM. Also, the TGI with HOP-92 NSCLC was > 25 µM; with M14 melanoma, 6.24 µM; with UACC-257 melanoma, 8.01 µM; with MDA-MB-435, > 25 µM; with T-47D breast it was 17.2 µM; in the test on PC-3 prostate, 2.7 µM. The TGI is 5.39 µM in the test with HCT-116 colon; 10.1 µM in the test on ACHN renal; 6.29 µM in the test on HOP-62 NSCLC; 7.62 µM in the test with SR leukemia; 16.1 µM in the test on TK-10 renal; > 25 µM in the test on LOX IMVI melanoma. For the same compound, the values for the TGI in the test with SN12C renal and in the test with CAKI-1 renal were > 25 µM and 9.06 µM, respectively.
Consider `CC1(C)CC(O)C2=C(O1)C(=O)c1ncccc1C2=O` (stereo not given), for which the TGI was > 22.6 µM in the test on RPMI-8226 leukemia; 4.89 µM with COLO 205 colon; 3.16 µM in the test on SK-MEL-28 melanoma; 10 µM in the test on DU-145 prostate; 3.24 µM in the test with NCI-H23 lung; 3.15 µM in the test with OVCAR-4 ovarian. Moreover, the TGI was 5.44 µM in the test on HOP-92 NSCLC; 4.22 µM in the test on M14 melanoma; 3.19 µM with UACC-257 melanoma; 3.3 µM in the test with MDA-MB-435; 5.91 µM in the test on T-47D breast; 9.57 µM with PC-3 prostate. In addition, the TGI in the test with HCT-116 colon was 5.76 µM; with ACHN renal, 11.5 µM; with HOP-62 NSCLC it was 3.38 µM; in the test with SR leukemia it was > 19.8 µM; in the test on TK-10 renal, 20.1 µM; in the test with LOX IMVI melanoma, 3.4 µM. For the same compound, the results for the TGI in the test on SN12C renal and in the test on CAKI-1 renal were 3.68 µM and 4.45 µM, respectively.
With `O=[N+]([O-])c1ccc(-c2cc(O)c3nc4ccccc4n3c2)cc1`, the TGI with RPMI-8226 leukemia, in the test with COLO 205 colon, in the test on SK-MEL-28 melanoma, in the test on DU-145 prostate, in the test on NCI-H23 lung and in the test on OVCAR-4 ovarian was > 100 µM each time. Besides, the TGI in the test on HOP-92 NSCLC was > 100 µM; in the test with M14 melanoma, > 100 µM; in the test on UACC-257 melanoma it was > 100 µM; with MDA-MB-435, > 31.6 µM; in the test with T-47D breast it was > 100 µM; with PC-3 prostate, > 100 µM. Also, the TGI in the test on HCT-116 colon is > 100 µM; in the test on ACHN renal, > 100 µM; in the test with HOP-62 NSCLC, > 94 µM; in the test with SR leukemia it was > 100 µM; in the test with TK-10 renal it was > 100 µM; in the test with LOX IMVI melanoma, > 100 µM. The TGI in the test on SN12C renal and with CAKI-1 renal was > 100 µM in each case.
In the case of `CC(=O)Nc1ccc(NS(=O)(=O)c2ccc3nc(C)n(NS(=O)(=O)c4ccc(NC(C)=O)cc4)c(=O)c3c2)cc1`, the TGI in the test with RPMI-8226 leukemia, in the test on COLO 205 colon, with SK-MEL-28 melanoma, with DU-145 prostate, in the test on NCI-H23 lung and in the test with OVCAR-4 ovarian was > 100 µM each time. In addition, the TGI with HOP-92 NSCLC, in the test with M14 melanoma, in the test with UACC-257 melanoma, in the test on MDA-MB-435, in the test on T-47D breast and in the test with PC-3 prostate was > 100 µM throughout. The TGI with HCT-116 colon, with ACHN renal, with HOP-62 NSCLC, in the test with SR leukemia, in the test on TK-10 renal and with LOX IMVI melanoma was > 100 µM in each case. Further, the TGI in the test with SN12C renal and in the test on CAKI-1 renal was > 100 µM throughout.
For the compound `COc1ccc(CC2C3=C(CCN2C(=O)C2CCC2)CC2(CC3)OCCO2)cc1O` (stereo not given), the TGI was > 100 µM in the test with RPMI-8226 leukemia; 48 µM in the test on COLO 205 colon; > 100 µM in the test on SK-MEL-28 melanoma; 61.6 µM in the test with DU-145 prostate; 44.6 µM with NCI-H23 lung; > 100 µM with OVCAR-4 ovarian. Besides, the TGI was > 100 µM with HOP-92 NSCLC; 63.1 µM in the test on M14 melanoma; > 100 µM in the test on UACC-257 melanoma; 20 µM in the test on MDA-MB-435; > 100 µM in the test on T-47D breast; > 100 µM in the test on PC-3 prostate. In addition, the TGI with HCT-116 colon, in the test on ACHN renal, in the test with HOP-62 NSCLC, in the test on SR leukemia, in the test with TK-10 renal and in the test on LOX IMVI melanoma was > 100 µM in each case. The TGI in the test on SN12C renal and in the test with CAKI-1 renal was > 100 µM each time.
Regarding `COc1ccc(NC(=S)N/N=C\c2ccc(NC(C)=O)cc2)cc1`, the TGI with RPMI-8226 leukemia, in the test with COLO 205 colon, in the test with SK-MEL-28 melanoma, in the test on DU-145 prostate, in the test with NCI-H23 lung and in the test on OVCAR-4 ovarian was > 100 µM throughout. Also, the TGI in the test with HOP-92 NSCLC, in the test with M14 melanoma, with UACC-257 melanoma, in the test with MDA-MB-435, in the test with T-47D breast and with PC-3 prostate was > 100 µM in each case. Also, the TGI in the test with HCT-116 colon, with ACHN renal, with HOP-62 NSCLC, with SR leukemia, with TK-10 renal and with LOX IMVI melanoma was > 100 µM each time. Moreover, the TGI in the test on SN12C renal and with CAKI-1 renal was > 100 µM each time.
